In general, IC50 refers to the concentration that gives 50% inhibition. Low readings indicate inhibition by little substance, high ones a need for much substance.

One assay deals with T1, FAAH (Homo sapiens, UniProt O00519).
T1 construct: purchased
T1 sequence (O00519 1-579): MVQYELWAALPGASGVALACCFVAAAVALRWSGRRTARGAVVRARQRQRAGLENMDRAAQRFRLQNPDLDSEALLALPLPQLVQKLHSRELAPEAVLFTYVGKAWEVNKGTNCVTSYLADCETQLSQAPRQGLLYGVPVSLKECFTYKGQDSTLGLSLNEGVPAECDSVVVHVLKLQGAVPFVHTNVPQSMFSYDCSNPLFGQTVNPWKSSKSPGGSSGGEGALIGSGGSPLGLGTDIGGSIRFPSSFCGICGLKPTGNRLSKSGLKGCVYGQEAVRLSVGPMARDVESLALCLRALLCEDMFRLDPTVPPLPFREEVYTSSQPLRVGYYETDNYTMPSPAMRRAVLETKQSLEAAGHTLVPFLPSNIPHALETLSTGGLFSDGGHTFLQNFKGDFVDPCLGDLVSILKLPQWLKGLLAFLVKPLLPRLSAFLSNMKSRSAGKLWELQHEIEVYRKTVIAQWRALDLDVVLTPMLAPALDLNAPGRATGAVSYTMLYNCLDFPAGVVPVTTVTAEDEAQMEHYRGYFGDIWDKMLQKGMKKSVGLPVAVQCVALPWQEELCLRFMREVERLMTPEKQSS
The assay can be described thus: In vitro FAAH enzyme inhibition activity assay (FAAH assay kit, fluorescently labeled substrate). Format: biochemical. The protocol: FAAH hydrolyzes AEA to form ethanolamine within cells. Different enzyme activities catalyze the formation of varying amounts of products from a fixed amount of substrate. The enzyme activity level can be assessed by measuring the amount of products generated. Based on this principle, experiments were designed in this invention. According to the FAAH assay kit instructions, a certain concentration of FAAH was diluted and added to a buffer solution along with a fluorescently labeled substrate. Compounds of various concentrations were then added, along with blank control groups and JZL-195 positive control groups. After the reaction, fluorescence analysis was performed using a plate reader, and the inhibition rate was calculated.

The test system of assay [1] is SD rats. The assay can be described thus: Sucrose preference test, chlorpromazine-induced depression model. Format: in vivo. The protocol:
(§1) Male SD rats weighing between 180 g to 200 g were randomly divided into 6 groups, with 8 rats in each group, as follows: Normal group; Chlorpromazine group; Positive control group (Amitriptyline, 6 mg/kg); I-11 low dose group (3 mg/kg); I-11 medium dose group (6 mg/kg); I-11 high dose group (12 mg/kg); In the normal group, rats were maintained under normal conditions. In other groups, rats were intraperitoneally injected with chlorpromazine (0.2 mg/kg) once a day for three days to induce the model. After successful modeling, the respective drugs were administered according to the group. After two weeks of continuous administration, sucrose consumption test, open field test, and forced swimming test were conducted sequentially. The American Psychiatric Association considers a significant feature of depression to be the decrease in reward responsiveness, indicating a loss of pleasure. The sucrose preference test is a well-established measure for assessing reward responsiveness in experimental animals.

Assay [2] has as its system SD rats. The assay can be described thus: Open field test, chlorpromazine-induced depression model. The assay is classed as in vivo. The note with it: 6 mg/kg. The protocol:
as §1, with “After” for “The American Psychiatric Association considers a significant feature of depression to be”, “the” for “the decrease in reward responsiveness, indicating a loss of pleasure. The”, “preference test, we conducted an open field” for “preference”, “on the” for “is a well-established measure for assessing reward responsiveness in”

Assay [3] deals with SD rats. The assay can be described thus: Forced swimming test, chlorpromazine-induced depression model. Format: in vivo. The protocol: as §1, with “sequentially.” for “sequentially. The American Psychiatric Association considers a significant feature of depression to be the decrease in reward responsiveness, indicating a loss of pleasure. The sucrose preference test is a well-established measure for assessing reward responsiveness in experimental animals.”

For the next assay, the system named is mice. The assay is described as follows: Acetic acid writhing test in mice (analgesic activity). The assay is classed as in vivo. The note with it: 5 mg/kg s.c. The protocol:
Using the acetic acid writhing test in mice as a pain model to evaluate the analgesic activity of compound I-11. The experimental animal information and procedures are outlined below.
Healthy ICR mice, of clean grade, weighing 20-25 g. The animal facility complies with the requirements of a clean laboratory, with a temperature of 20-22° C., humidity of 40%˜70%, and controlled lighting on a 12-hour light/12-hour dark cycle (lighting from 8:00 to 20:00). Mice are housed in plastic cages (280×150×180 mm) with 10 mice per cage, separated by gender, and provided ad libitum access to food and water. The diet consists of experimental rodent pellets, and the drinking water is city tap water sterilized by high-temperature autoclaving. Mice are allowed a 7-day acclimatization period. All procedures involving animals are conducted following the guidelines of the International Association for the Study of Pain Ethics Committee. Mice are housed in the animal facility upon purchase.
Glacial acetic acid and physiological saline were obtained from the China Pharmaceutical University reagent repository. Compound I-11 was a laboratory-synthesized compound (purity>98%).
Mice were marked with saturated bitter solution, with the left front limb marked as number 1, left hind limb as number 2, right front limb as number 3, right hind limb as number 4, and head as number 5. Combinations such as head with left front limb as number 6, head with left hind limb as number 7, head with right front limb as number 8, head with right hind limb as number 9, and tail as number 10 were used for identification. Animals were divided into groups, with n=10 in each group, evenly distributed between males and females.
The experiment employed the acetic acid-induced writhing test in mice to investigate the analgesic activity of the samples. […] The number of writhing movements and the latency period of mice were observed and recorded 15 minutes after acetic acid injection, and the analgesic percentage was calculated. […]
Background: An intraperitoneal irritant provokes the stretching counted in writhing tests.

Compound `Cn1c(C(=O)N2CCC(C(=O)c3ncc(-c4ccccc4)o3)CC2)cc2cc(Cl)ccc21` [Compound I-10, (5-chloro-1-methyl-1H-indol-2-yl)-(4-(5-phenyl-oxazol-2-carbonyl)piperidin-1-yl)methanone] registered an IC50 on FAAH (values in nm) of 112 nM. This counts as sub-micromolar. `Cn1c(C(=O)N2CCC(C(=O)c3ncco3)CC2)cc2cc(Cl)ccc21` [Compound I-7, (5-Chloro-1-methyl-1H-indol-2-yl)(4-(oxazole-2-carbonyl)piperidin-1-yl) methanone]: at FAAH (values in nm), the IC50 amounted to 77.9 nM. For the compound `Cn1c(C(=O)N2CCC(C(=O)c3ccccn3)CC2)cc2cc(Cl)ccc21` [Compound I-3], the IC50 on FAAH (values given in μm [sic]) is 13500 nM. Regarding `O=C(c1ccccn1)C1CCN(Cc2cnc3ccccc3c2)CC1` [Compound I-6, Pyridin-2-yl(1-(quinolin-3-ylmethyl)piperidin-4-yl)methanone], the IC50 against FAAH (values given in μm [sic]) worked out at 132000 nM.

`Cn1c(C(=O)N2CCC(C(=O)c3nc4ccccc4s3)CC2)cc2cc(Cl)ccc21` [Compound I-9] gave an IC50 on FAAH (values in nm) of 279 nM. `Cn1c(C(=O)N2CCC(C(=O)c3nnc(-c4cccc(Cl)c4)o3)CC2)cc2cc(Cl)ccc21` [Compound I-13, (5-chloro-1-methyl-1H-indol-2-yl)(4-(5-(3-chlorophenyl)-1,3,4-oxadiazol-2-carbonyl)piperidin-1-yl)methanone] had an IC50 at FAAH (values in nm) of 89.7 nM. `CN(C)CCC=C1c2ccccc2CCc2ccccc21` [Amitriptyline]: the “sucrose intake compared to the model group (in words)” value with SD rats [1] (high-dose I-11 (12 mg/kg), amitriptyline 6 mg/kg) was “significant increase in sucrose intake”. Besides, the Sucrose intake ratio in the assay on SD rats [1] (model rats, 6 mg/kg, two weeks of administration) came out at 78.6 ± 4.6 %. Further, in the assay with SD rats [2], the Frequency of grooming worked out at 4.3 ± 0.3 n, the Frequency of upright is on record as 10.6 ± 2.2 n, the “Times passing the grid” value is recorded as 58.9 ± 2.2 n and the “Total time in center” value is 4.6 ± 0.6 s. The “immobility time versus model (in words)” value in the assay with SD rats [3] (Amitriptyline 6 mg/kg, I-11 medium and high dose, p<0.05) is “reduce the immobility time”. Besides, the “Immobility Time” value in the assay on SD rats [3] (model rats, 6 mg/kg) worked out at 88.47 ± 4.64 s. On to `CN1CC[C@]23c4c5ccc(O)c4O[C@H]2[C@@H](O)C=C[C@H]3[C@H]1C5` [Morphine], for which, in the assay with mice, the “Inhibition (analgesic percentage, writhing)” value was determined as 100.0% and the latency period is reported as 0 s. Further, in the assay on mice (within 15 minutes after acetic acid), the writhing count is given as 0.

For `Cn1c(C(=O)N2CCC(C(=O)c3ccncc3)CC2)cc2cc(Cl)ccc21` [Compound I-1], the half-inhibitory concentration (IC50) against FAAH (values given in μm [sic]) was 27900 nM. Regarding `Cn1c(C(=O)N2CCC(C(=O)c3nnc(-c4ccco4)o3)CC2)cc2cc(Cl)ccc21` [Compound I-15, (5-chloro-1-methyl-1H-indol-2-yl)(4-(5-(furan-2-yl)-1,3,4-oxadiazol-2-carbonyl)piperidin-1-yl)methanone], the IC50 on FAAH (values in nm) is 3.11 nM. Still for that read-out and setting: under `O=C(Oc1ccc([N+](=O)[O-])cc1)N1CCN(Cc2cccc(Oc3ccccc3)c2)CC1` [JZL-195, reference compound] stands 2.81 nM. The compound `Cn1c(C(=O)N2CCC(C(=O)c3nccs3)CC2)cc2cc(Cl)ccc21` [Compound I-8, (5-chloro-1-methyl-1H-indol-2-yl)(4-(thiazol-2-carbonyl)piperidin-1-yl)methanone] yielded a half-inhibitory concentration (IC50) on FAAH (values given in μm [sic]) of 1030 nM. This lies in the single-digit micromolar range. For `Cn1c(C(=O)N2CCC(C(=O)c3nnc(-c4cccs4)o3)CC2)cc2cc(Cl)ccc21` [Compound I-16, (5-chloro-1-methyl-1H-indol-2-yl) (4-(5-(thiophene-2-yl)-1,3,4-oxadiazol-2-carbonyl)piperidin-1-yl)methanone], the IC50 against FAAH (values in nm) worked out at 12.9 nM. Take `Cn1c(C(=O)N2CCC(C(=O)c3ccncc3)CC2)cc2ccccc21` [Compound I-2]: at FAAH (values given in μm [sic]), 14200 nM corresponded to half-maximal inhibition (IC50). In other words, the double-digit micromolar range. `O=C(c1ccccn1)C1CCN(C(=O)c2cnc3ccccc3c2)CC1` [Compound I-5]: the half-maximal inhibitory concentration (IC50) on FAAH (values given in μm [sic]) worked out at 125000 nM. On the same count and under the same terms, under `O=C(c1ccccn1)C1CCN(C(=O)c2cc3ccccc3o2)CC1` [Compound I-4, (1-(benzofuran-2-carbonyl)piperidin-4-yl)(pyridin-2-yl)methanone] stands 10100 nM.

(Values after patent publication US20240391901A1, “SUBSTITUTED HETEROCYCLIC COMPOUND CONTAINING ALPHA-KETONE FRAMEWORK, AND USE THEREOF” (CHINA PHARMACEUTICAL UNIVERSITY, priority 2021, published 2024).)
